How the values were obtained:
[1] = DRUGMATRIX: Serotonin (5-Hydroxytryptamine) 5-HT3 radioligand binding (ligand: [3H] GR-65630); assay type: cell membranes, Membrane; details: hek293; Not Active = under 50% inhibition at 10 µM
[2] = DRUGMATRIX: GABAA, Chloride Channel, TBOB radioligand binding (ligand: [3H] TBOB); assay type: cell membranes, Rattus norvegicus, Wistar, Cerebral cortex, Membrane; details: Not Active = under 50% inhibition at 10 µM
[3] = DRUGMATRIX: Interleukin IL-1 radioligand binding (ligand: [125I] interleukin 1beta); assay type: cell membranes, Membrane; details: nih3t3; Not Active = under 50% inhibition at 10 µM
[4] = target: T1, Muscarinic acetylcholine receptor M5 (Homo sapiens, UniProt P08912); assay type: cell membranes, CHO-K1, Membrane; note: in other assays of this panel Not Active means under 50% inhibition at 10 µM
T1 sequence (P08912 whole entry): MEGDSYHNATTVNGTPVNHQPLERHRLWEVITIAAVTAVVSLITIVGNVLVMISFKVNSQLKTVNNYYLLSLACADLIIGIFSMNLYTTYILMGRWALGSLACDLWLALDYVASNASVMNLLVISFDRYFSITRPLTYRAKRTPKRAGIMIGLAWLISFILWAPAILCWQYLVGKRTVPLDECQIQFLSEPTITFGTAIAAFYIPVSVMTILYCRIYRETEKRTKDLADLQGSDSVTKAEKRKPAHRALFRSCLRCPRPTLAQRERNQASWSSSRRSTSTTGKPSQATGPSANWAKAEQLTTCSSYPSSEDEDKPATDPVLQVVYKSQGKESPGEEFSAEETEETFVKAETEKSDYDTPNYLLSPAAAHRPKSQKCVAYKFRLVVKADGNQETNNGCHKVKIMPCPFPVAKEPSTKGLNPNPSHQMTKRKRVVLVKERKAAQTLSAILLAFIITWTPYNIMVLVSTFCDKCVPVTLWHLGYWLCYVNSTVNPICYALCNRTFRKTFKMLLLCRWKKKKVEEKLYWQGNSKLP

[5] = DRUGMATRIX: Nicotinic Acetylcholine radioligand binding (ligand: [125I] Epibatidine); assay type: cell membranes, Membrane; details: imr-32; Not Active = under 50% inhibition at 10 µM
[6] = DRUGMATRIX: Purinergic P2X radioligand binding (ligand: [3H] alpha, beta-Methylene-ATP); assay type: cell membranes, Oryctolagus cuniculus, New Zealand albino, Urinary bladder, Membrane; details: Not Active = under 50% inhibition at 10 µM
Adenosine receptor A2a = Adenosine receptor A2a (Homo sapiens, UniProt P29274); experiment: DRUGMATRIX: Adenosine A2A radioligand binding (ligand: […]); assay type: cell membranes, HEK293, Membrane; details: Not Active = under 50% inhibition at 10 µM
Adenosine receptor A2a, sequence (P29274 whole entry): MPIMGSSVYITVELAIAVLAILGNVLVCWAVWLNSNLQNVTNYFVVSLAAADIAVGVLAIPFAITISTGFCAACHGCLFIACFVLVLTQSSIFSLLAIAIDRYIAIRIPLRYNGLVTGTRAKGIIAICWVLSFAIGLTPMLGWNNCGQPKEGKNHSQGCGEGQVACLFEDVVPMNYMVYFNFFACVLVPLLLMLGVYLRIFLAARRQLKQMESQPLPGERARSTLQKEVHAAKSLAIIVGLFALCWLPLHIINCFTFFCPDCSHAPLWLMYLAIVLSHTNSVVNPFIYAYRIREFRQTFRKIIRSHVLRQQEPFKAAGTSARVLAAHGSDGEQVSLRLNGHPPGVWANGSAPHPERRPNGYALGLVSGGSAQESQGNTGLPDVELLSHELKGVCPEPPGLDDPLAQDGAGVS

CC1(C)O[C@@H]2C[C@H]3[C@@H]4C[C@H](F)C5=CC(=O)C=C[C@]5(C)[C@H]4[C@@H](O)C[C@]3(C)[C@]2(C(=O)CO)O1 [FLUNISOLIDE]
Not Active: IC50 [1] | Ki [1] | IC50 [2] | Ki [2] | IC50 [3] | Ki [3] | IC50 ([4]; cho-k1) | IC50 [5] | Ki [5] | IC50 [6] | Ki [6] | IC50 (Adenosine receptor A2a; hek293)

CC1(C)O[C@@H]2C[C@H]3[C@@H]4C[C@H](F)C5=CC(=O)C=C[C@]5(C)[C@@]4(F)[C@@H](O)C[C@]3(C)[C@]2(C(=O)CO)O1 [FLUOCINOLONE ACETONIDE]
Not Active: IC50 [1] | Ki [1] | IC50 [2] | Ki [2] | IC50 [3] | Ki [3] | IC50 ([4]; cho-k1) | IC50 [5] | Ki [5] | IC50 [6] | Ki [6] | IC50 (Adenosine receptor A2a; hek293)

CC1(C)O[C@@H]2C[C@H]3[C@@H]4C[C@H](F)C5=CC(=O)CC[C@]5(C)[C@H]4[C@@H](O)C[C@]3(C)[C@]2(C(=O)CO)O1 [FLURANDRENOLIDE]
Not Active: IC50 [1] | Ki [1] | IC50 [2] | Ki [2] | IC50 [3] | Ki [3] | IC50 ([4]; cho-k1) | IC50 [5] | Ki [5] | IC50 [6] | Ki [6] | IC50 (Adenosine receptor A2a; hek293)

CN(C)c1ccc(C(=C2C=CC(=[N+](C)C)C=C2)c2ccc(N(C)C)cc2)cc1.[Cl-] [GENTIAN VIOLET]
384 nM: Ki ([4]; read-out: Ki)
1890 nM: Ki (Adenosine receptor A2a; read-out: Ki)
3370 nM: IC50 (Adenosine receptor A2a; read-out: IC50)
Not Active: IC50 [1] | Ki [1] | IC50 [2] | Ki [2] | IC50 [3] | Ki [3] | IC50 [5] | Ki [5] | IC50 [6] | Ki [6]
535 nM: IC50 ([4]; read-out: IC50)

Cc1ccc(S(=O)(=O)NC(=O)NN2CC3CCCC3C2)cc1 (stereo not given) [GLICLAZIDE]
Not Active: IC50 [1] | Ki [1] | IC50 [2] | Ki [2] | IC50 [3] | Ki [3] | IC50 ([4]; cho-k1) | IC50 [5] | Ki [5] | IC50 [6] | Ki [6] | IC50 (Adenosine receptor A2a; hek293)

NC(=O)NO [HYDROXYUREA]
Not Active: IC50 [1] | Ki [1] | IC50 [2] | Ki [2] | IC50 [3] | Ki [3] | IC50 ([4]; cho-k1) | IC50 [5] | Ki [5] | IC50 [6] | Ki [6] | IC50 (Adenosine receptor A2a; hek293)

CC(C)Cc1ccc(C(C)C(=O)O)cc1 (stereo not given) [IBUPROFEN]
Not Active: IC50 [1] | Ki [1] | IC50 [2] | Ki [2] | IC50 [3] | Ki [3] | IC50 ([4]; cho-k1) | IC50 [5] | Ki [5] | IC50 [6] | Ki [6] | IC50 (Adenosine receptor A2a; hek293)

COc1ccc2c(c1)c(CC(=O)O)c(C)n2C(=O)c1ccc(Cl)cc1 [INDOMETHACIN]
Not Active: IC50 [1] | Ki [1] | IC50 [2] | Ki [2] | IC50 [3] | Ki [3] | IC50 ([4]; cho-k1) | IC50 [5] | Ki [5] | IC50 [6] | Ki [6] | IC50 (Adenosine receptor A2a; hek293)

CCc1c2c(nc3ccc(OC(=O)N4CCC(N5CCCCC5)CC4)cc13)-c1cc3c(c(=O)n1C2)COC(=O)[C@]3(O)CC [IRINOTECAN]
Not Active: IC50 [1] | Ki [1] | IC50 [2] | Ki [2] | IC50 [3] | Ki [3] | IC50 ([4]; cho-k1) | IC50 [5] | Ki [5] | IC50 [6] | Ki [6] | IC50 (Adenosine receptor A2a; hek293)

CC(C(=O)O)c1cccc(C(=O)c2ccccc2)c1 (stereo not given) [KETOPROFEN]
Not Active: IC50 [1] | Ki [1] | IC50 [2] | Ki [2] | IC50 [3] | Ki [3] | IC50 ([4]; cho-k1) | IC50 [5] | Ki [5] | IC50 [6] | Ki [6] | IC50 (Adenosine receptor A2a; hek293)

Nc1ccn([C@@H]2CS[C@H](CO)O2)c(=O)n1 [LAMIVUDINE]
Not Active: IC50 [1] | Ki [1] | IC50 [2] | Ki [2] | IC50 [3] | Ki [3] | IC50 ([4]; cho-k1) | IC50 [5] | Ki [5] | IC50 [6] | Ki [6] | IC50 (Adenosine receptor A2a; hek293)

O=S(=O)([O-])CCS.[Na+] [MESNA]
Not Active: IC50 [1] | Ki [1] | IC50 [2] | Ki [2] | IC50 [3] | Ki [3] | IC50 ([4]; cho-k1) | IC50 [5] | Ki [5] | IC50 [6] | Ki [6] | IC50 (Adenosine receptor A2a; hek293)

C#C[C@]1(O)CC[C@H]2[C@@H]3CCc4cc(OC)ccc4[C@H]3CC[C@@]21C [MESTRANOL]
Not Active: IC50 [1] | Ki [1] | IC50 [2] | Ki [2] | IC50 [3] | Ki [3] | IC50 ([4]; cho-k1) | IC50 [5] | Ki [5] | IC50 [6] | Ki [6] | IC50 (Adenosine receptor A2a; hek293)

CC(=O)Nc1cccc(O)c1 [METACETAMOL]
Not Active: IC50 [1] | Ki [1] | IC50 [2] | Ki [2] | IC50 [3] | Ki [3] | IC50 ([4]; cho-k1) | IC50 [5] | Ki [5] | IC50 [6] | Ki [6] | IC50 (Adenosine receptor A2a; hek293)

Cc1ncc([N+](=O)[O-])n1CCO [METRONIDAZOLE]
Not Active: IC50 [1] | Ki [1] | IC50 [2] | Ki [2] | IC50 [3] | Ki [3] | IC50 ([4]; cho-k1) | IC50 [5] | Ki [5] | IC50 [6] | Ki [6] | IC50 (Adenosine receptor A2a; hek293)

CC(C)(C(=O)c1cccnc1)c1cccnc1 [METYRAPONE]
Not Active: IC50 [1] | Ki [1] | IC50 [2] | Ki [2] | IC50 [3] | Ki [3] | IC50 ([4]; cho-k1) | IC50 [5] | Ki [5] | IC50 [6] | Ki [6] | IC50 (Adenosine receptor A2a; hek293)

Oc1ccc(OCc2ccccc2)cc1 [MONOBENZONE]
Not Active: IC50 [1] | Ki [1] | IC50 [2] | Ki [2] | IC50 [3] | Ki [3] | IC50 ([4]; cho-k1) | IC50 [5] | Ki [5] | IC50 [6] | Ki [6] | IC50 (Adenosine receptor A2a; hek293)

CC(C)(Oc1ccc(C2CCCc3ccccc32)cc1)C(=O)O (stereo not given) [NAFENOPIN]
Not Active: IC50 [1] | Ki [1] | IC50 [2] | Ki [2] | IC50 [3] | Ki [3] | IC50 ([4]; cho-k1) | IC50 [5] | Ki [5] | IC50 [6] | Ki [6] | IC50 (Adenosine receptor A2a; hek293)

COc1ccc2cc([C@H](C)C(=O)O)ccc2c1 [NAPROXEN]
Not Active: IC50 [1] | Ki [1] | IC50 [2] | Ki [2] | IC50 [3] | Ki [3] | IC50 ([4]; cho-k1) | IC50 [5] | Ki [5] | IC50 [6] | Ki [6] | IC50 (Adenosine receptor A2a; hek293)
